# Patent publication US4399286A, “Antiarrhythmic phenethylpiperidine compounds” (Mead Johnson & Company, priority 1981, dated 1983)
# Columns and labels:
# [1] = system: rabbit atrium; assay: in vitro rabbit atrium test, steady state refractory period; conditions: rabbit left atrium, Chenoweth's solution, 30° C., stimulated at 30/minute, five minute interval
# Experimental: 3. […] In this test, the left atrium is placed in Chenoweth's solution warmed to 30° C. and irrigated with 95% oxygen:5% carbon dioxide. The lower end of the atrium is attached to a small hook fixed in the bath and the upper end is connected to a transducer to record contractile activity. The atrium is electrically stimulated at a basic rate of 30/minute by employing square wave pulses of 10 millisecond duration at 1.2 to 1.5 times threshold voltage. A test compound is introduced into the bath and the test repeated after a five minute interval. A dose-response relationship is obtained with additional doses of the test compound. […] This value is designated the EC50.
# [2] = system: chloroform-induced arrhythmia; assay: inhibition of chloroform-induced arrhythmia in the mouse (J. W. Lawson method); type: in vivo; conditions: ip, intraperitoneal administration, read-out: ED50, prevention of chloroform-induced arrhythmia
# Description: 2. In the mouse, another in vivo test involves the inhibition of chloroform-induced arrhythmia according to the method of J. W. Lawson, Journal of Pharmacology and Experimental Therapeutics, 160, 22 (1968).
SMILES,EC50 (effective concentration which reduces to 50% the maximal increase in the steady state refractory period of the atrium) [1] [µg/mL],ED50 [2] [mg/kg]
"CN1CCCCC1CCc1ccccc1NC(=O)Nc1ccccc1 (stereo not drawn) [Example 1, 2-[2-(1-Methyl-2-piperidinyl)ethyl]carbanilide]",1.5,23
"COc1ccc(C(=N)Nc2ccccc2CCC2CCCCN2C)cc1 (stereo not drawn) [Example 15, N-[2-[2-(1-Methyl-2-piperidinyl)ethyl]phenyl]-p-anisamidine]",10,
"COc1ccc(NC(=O)Nc2ccccc2CCC2CCCCN2C)cc1 (stereo not drawn) [Example 2, 4'-Methoxy-2-[2-(1-methyl-2-piperidinyl)ethyl]carbanilide]",29,46
"CN1CCCCC1CCc1ccccc1NC(=S)Nc1ccccc1 (stereo not drawn) [Example 9, 2-[2-(1-Methyl-2-piperidinyl)ethyl]thiocarbanilide]",5.9,
